These results are taken from patent publication US10829473B2, “Modulators of the cystic fibrosis transmembrane conductance regulator protein and methods of use” (AbbVie Overseas S.Á.R.L., priority 2017, dated 2020).

Where two headings read alike, the source gives them in different places. Bounds are passed on as bounds.

For this assay, the target named is T1, F508delCFTR (Homo sapiens, UniProt P13569, DEL508-508).
T1 construct: expressed in transfected cells; host or cells: CFBE41o- human lung derived epithelial cells (CFBE41o-F508delCFTR-HRP), doxycycline-inducible
T1 sequence (P13569 with tags, fused parts or gaps DEL508-508): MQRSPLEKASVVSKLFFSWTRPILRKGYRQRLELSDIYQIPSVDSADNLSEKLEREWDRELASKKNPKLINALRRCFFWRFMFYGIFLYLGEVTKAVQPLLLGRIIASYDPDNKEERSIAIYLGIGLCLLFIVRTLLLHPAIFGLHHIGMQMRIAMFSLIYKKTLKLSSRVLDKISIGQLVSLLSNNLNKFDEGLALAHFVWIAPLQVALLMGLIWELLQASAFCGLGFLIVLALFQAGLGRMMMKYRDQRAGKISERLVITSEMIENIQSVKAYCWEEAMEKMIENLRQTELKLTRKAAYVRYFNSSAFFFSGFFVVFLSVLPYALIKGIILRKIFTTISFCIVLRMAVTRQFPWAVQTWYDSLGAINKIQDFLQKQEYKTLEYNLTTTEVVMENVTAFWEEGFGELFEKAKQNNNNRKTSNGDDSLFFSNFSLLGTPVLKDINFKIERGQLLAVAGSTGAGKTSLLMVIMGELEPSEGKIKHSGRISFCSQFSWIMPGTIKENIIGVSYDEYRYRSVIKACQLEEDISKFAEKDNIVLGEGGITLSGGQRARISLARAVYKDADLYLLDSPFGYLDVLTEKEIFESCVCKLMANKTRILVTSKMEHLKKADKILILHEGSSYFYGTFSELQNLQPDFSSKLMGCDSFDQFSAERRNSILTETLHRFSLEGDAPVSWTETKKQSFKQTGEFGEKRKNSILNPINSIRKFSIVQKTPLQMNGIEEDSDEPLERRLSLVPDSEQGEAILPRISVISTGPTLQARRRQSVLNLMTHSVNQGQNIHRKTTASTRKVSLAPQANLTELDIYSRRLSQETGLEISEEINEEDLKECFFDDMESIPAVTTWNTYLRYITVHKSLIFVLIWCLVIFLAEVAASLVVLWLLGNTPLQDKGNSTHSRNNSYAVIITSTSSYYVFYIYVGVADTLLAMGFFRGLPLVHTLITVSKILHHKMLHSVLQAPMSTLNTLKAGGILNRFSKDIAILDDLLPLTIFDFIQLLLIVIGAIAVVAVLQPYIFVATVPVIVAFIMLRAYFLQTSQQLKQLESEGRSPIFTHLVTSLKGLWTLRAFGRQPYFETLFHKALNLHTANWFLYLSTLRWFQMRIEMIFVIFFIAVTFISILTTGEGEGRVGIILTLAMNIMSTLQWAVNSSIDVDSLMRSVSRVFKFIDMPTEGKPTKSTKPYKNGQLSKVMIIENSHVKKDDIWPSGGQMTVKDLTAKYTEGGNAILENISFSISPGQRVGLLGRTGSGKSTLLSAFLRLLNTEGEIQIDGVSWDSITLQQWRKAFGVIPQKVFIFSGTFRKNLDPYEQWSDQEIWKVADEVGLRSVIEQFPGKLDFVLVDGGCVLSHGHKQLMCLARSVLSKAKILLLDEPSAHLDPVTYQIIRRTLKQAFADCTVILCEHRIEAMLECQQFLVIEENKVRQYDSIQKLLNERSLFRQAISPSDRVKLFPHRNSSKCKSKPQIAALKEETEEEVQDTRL
Kind of assay: Cell Surface Expression-Horse Radish Peroxidase (CSE-HRP) Assay.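 For EC50 (with co-corrector): co-corrector chromenyl benzoic acid corrector at 2 or 3 µM.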 Particulars: for Maximum % activity (with co-corrector) / Emax: maximum at any tested concentration; for Emax: read-out: Maximum % activity (without co-corrector). It is filed as cell-based. Here is the method:
A cellular assay for measuring the F508delCFTR cell surface expression after correction with test compounds either without or with a co-corrector (2 μM of 3-[(2R,4R)-4-({[1-(2,2-difluoro-1,3-benzodioxol-5-yl)cyclopropyl]carbonyl}amino)-7-methoxy-3,4-dihydro-2H-chromen-2-yl]benzoic acid), was developed in human lung derived epithelial cell line (CFBE4lo−) (Veit G et al, (2012) Mol Biol Cell. 23(21): 4188-4202). The development was achieved by expressing the F508delCFTR mutation along with a horseradish peroxidase (HRP) in the fourth exofacial loop, and then measuring the HRP activity using luminescence readout from these cells, CFBE410-F508delCFTR-HRP, that were incubated overnight with the test corrector compounds, either without or with the co-corrector. For this primary assay, the CFBE410-F508delCFTR-HRP cells were plated in 384-well plates (Greiner Bio-one; Cat 781080) at 4,000 cells/well along with 0.5 μg/mL doxycycline to induce the F508delCFTR-HRP expression and further incubated at 37° C., 5% CO2 for 68-72 hours. The test compounds were then added either without or with a co-corrector at the required concentrations and further incubated for 18-24 hours at 33° C. The highest concentration tested was 20 μM or 30 μM (GI-1 to GIII-36) with an 8-point concentration response curve using a 3-fold dilution in both the test compound without or with the co-corrector. Three replicate plates were run to determine one EC50. All plates contained negative controls (dimethyl sulfoxide, DMSO) and positive control (2 μM or 3 μM (GI-1 to GIII-36) of 3-[(2R,4R)-4-({[1-(2,2-difluoro-1,3-benzodioxol-5-yl)cyclopropyl]carbonyl}amino)-7-methoxy-3,4-dihydro-2H-chromen-2-yl]benzoic acid) as well as on-plate concentration response of the positive control. Post incubation, the plates were washed 5× times with Dulbecco's phosphate buffered saline (DPBS), followed by the addition of the HRP substrate, luminol (50 4), and measuring the HRP activity using luminescence readout on EnVision® Multilabel Plate Reader (Perkin Elmer; product number 2104-0010). The raw counts from the experiment were analyzed using Accelrys® Assay Explorer v3.3.
Z′ greater than 0.5 was used as passing quality control criteria for the plates.
The Z′ is defined as: 1−[3*SDPositve Control+3*SDNegative Control/Absolute(MeanPositive Control−MeanNegative Control)] wherein “SD” is standard deviation.
The % activity measured at each of the 8 test concentrations of the test compound added either without or with a co-corrector (2 μM or 3 μM (GI-1 to GIII-36) of 3-[(2R,4R)-4-({[1-(2,2-difluoro-1,3-benzodioxol-5-yl)cyclopropyl]carbonyl}amino)-7-methoxy-3,4-dihydro-2H-chromen-2-yl]benzoic acid) was normalized to the on-plate positive control using the following formulae: % activity (Test compound without co-corrector)=[(test compound without co-corrector response DMSO response)/(positive control response DMSO response)]*100 % activity (Test compound with co-corrector)=[(test compound with co-corrector response DMSO response)/(positive control response DMSO response)]*100
The maximum % activity achieved for the test compound either without or with a co-corrector at any tested concentration is presented in Table 6 along with the respective EC50's calculated using the following general sigmoidal curve with variable Hill slope equation (described as Model 42 in the Accelrys® Assay Explorer v3.3 software): y=(a−d)/(1+(x/c)b)+d
General sigmoidal curve with concentration, response, top, bottom, EC50 and Hill slope. This model describes a sigmoidal curve with an adjustable baseline, a. The equation can be used to fit curves where response is either increasing or decreasing with respect to the independent variable, “x”.
“x” is a concentration of drug under test.
“a” is the maximum response, and “d” is the minimum response
“c” is the inflection point (EGO for the curve. That is, “y” is halfway between the lower and upper asymptotes when x=c.
“b” is the slope-factor or Hill coefficient. […]

Setting [1] is: test compound with co-corrector.
Setting [2] is: test compound with co-corrector, read-out: EC50 (with co-corrector).
[3] abbreviates: test compound without co-corrector.
The mark [4] stands for this setting: test compound without co-corrector, read-out: EC50 (without co-corrector).

Regarding `CC(C)COc1ncc(C2CC2)cc1C1(C(=O)NS(=O)(=O)c2cccc3ncccc23)CC1` [Example GI-48, 1-[5-cyclopropyl-2-(2-methylpropoxy)pyridin-3-yl]-N-(quinoline-5-sulfonyl)cyclopropane-1-carboxamide], under setting [1], the “Maximum % activity (with co-corrector)” value is “+++ (≥350)”. In addition, the EC50 under setting [2] was less than 3 µM and the EC50 under setting [4] is less than 3 µM. For the same molecule, the Emax under setting [3] was more than 150%.
On to `Cc1ccc2c(S(=O)(=O)NC(=O)C3(c4cc(C5CC5)cnc4OCC(C)C)CC3)cccc2n1` [Example GI-49, 1-[5-cyclopropyl-2-(2-methylpropoxy)pyridin-3-yl]-N-(2-methylquinoline-5-sulfonyl)cyclopropane-1-carboxamide], for which, under setting [1], the “Maximum % activity (with co-corrector)” value is on record as “+++ (≥350)”. Also, the half-maximal effective concentration (EC50) is, setting by setting: under setting [2], less than 3 µM; under setting [4], less than 3 µM. Moreover, the Emax under setting [3] is more than 150%.
In the case of `CC(C)COc1ncc(C2CC2)cc1C1(C(=O)NS(=O)(=O)c2cccc3[nH]ccc23)CC1` [Example GI-50, 1-[5-cyclopropyl-2-(2-methylpropoxy)pyridin-3-yl]-N-(1H-indole-4-sulfonyl)cyclopropane-1-carboxamide], under setting [1], the “Maximum % activity (with co-corrector)” value is on record as “+++ (≥350)”. The EC50 runs as follows: under setting [2], less than 3 µM; under setting [4], less than 3 µM. For the same molecule, under setting [3], the Emax was more than 150%.
For `CC(C)COc1ncc(C2CCC2)cc1C1(C(=O)NS(=O)(=O)c2cccc3ncccc23)CC1` [Example GI-51, 1-[5-cyclobutyl-2-(2-methylpropoxy)pyridin-3-yl]-N-(quinoline-5-sulfonyl)cyclopropane-1-carboxamide], under setting [1], the “Maximum % activity (with co-corrector)” value is given as “+++ (≥350)”. The EC50 reads like this: under setting [2], less than 3 µM; under setting [4], less than 3 µM. Also, the Emax under setting [3] was more than 150%.
For the molecule `CC(C)COc1ncc(C2CCC2)cc1C1(C(=O)NS(=O)(=O)c2cccc3[nH]ccc23)CC1` [Example GI-52, 1-[5-cyclobutyl-2-(2-methylpropoxy)pyridin-3-yl]-N-(1H-indole-4-sulfonyl)cyclopropane-1-carboxamide], the “Maximum % activity (with co-corrector)” value under setting [1] is “+++ (≥350)”. For the same molecule, the 50% effective concentration (EC50) under setting [2] was less than 3 µM and the concentration for a half-maximal effect (EC50) under setting [4] is less than 3 µM. Also, under setting [3], the Emax is more than 150%.
Turning to `Cc1ccc2c(S(=O)(=O)NC(=O)C3(c4cc(C5CCC5)cnc4OCC(C)C)CC3)cccc2n1` [Example GI-53, 1-[5-cyclobutyl-2-(2-methylpropoxy)pyridin-3-yl]-N-(2-methylquinoline-5-sulfonyl)cyclopropane-1-carboxamide], the “Maximum % activity (with co-corrector)” value under setting [1] is listed as “+++ (≥350)”. In addition, the concentration for a half-maximal effect (EC50) by setting is: under setting [2], less than 3 µM; under setting [4], less than 3 µM. The Emax under setting [3] was more than 150%.
Consider `CCc1ccc(OC(C)C)c(C2(C(=O)NS(=O)(=O)c3cccc4nc(C)ccc34)CC2)n1` [Example GI-54, 1-{6-ethyl-3-[(propan-2-yl)oxy]pyridin-2-yl}-N-(2-methylquinoline-5-sulfonyl)cyclopropane-1-carboxamide], for which the “Maximum % activity (with co-corrector)” value under setting [1] is on record as “+++ (≥350)”. In addition, the 50% effective concentration (EC50) lay in the range of 3 to 10 µM under setting [2] and 3 to 10 µM under setting [4]. Moreover, the Emax under setting [3] was more than 150%.
For the molecule `CCc1ccc(OC(C)C)c(C2(C(=O)NS(=O)(=O)c3cccc4ncccc34)CC2)n1` [Example GI-55, 1-{6-ethyl-3-[(propan-2-yl)oxy]pyridin-2-yl}-N-(quinoline-5-sulfonyl)cyclopropane-1-carboxamide], under setting [1], the “Maximum % activity (with co-corrector)” value is “+++ (≥350)”. Besides, the EC50 is less than 3 µM under setting [2] and 3 to 10 µM under setting [4]. Moreover, the Emax under setting [3] is more than 150%.
Take `CCc1ccc(OC(C)C)c(C2(C(=O)NS(=O)(=O)c3cccc4[nH]ccc34)CC2)n1` [Example GI-56, 1-{6-ethyl-3-[(propan-2-yl)oxy]pyridin-2-yl}-N-(1H-indole-4-sulfonyl)cyclopropane-1-carboxamide]: under setting [1], the “Maximum % activity (with co-corrector)” value is reported as “+++ (≥350)”. Also, the EC50 by setting is: under setting [2], less than 3 µM; under setting [4], 3 to 10 µM. Also, the Emax under setting [3] was more than 150%.
The corresponding values for `COC1CCN(c2ncc(C3CCC3)cc2C2(C(=O)NS(=O)(=O)c3cccc4[nH]ccc34)CC2)CC1` [Example GI-57, 1-[5-cyclobutyl-2-(4-methoxypiperidin-1-yl)pyridin-3-yl]-N-(1H-indole-4-sulfonyl)cyclopropane-1-carboxamide] are “+++ (≥350)”, less than 3 µM, less than 3 µM and more than 150%.
With `Cc1cnc(OC(C)C)c(C2(C(=O)NS(=O)(=O)c3cccc4nc(C)ccc34)CC2)c1` [Example GI-58, 1-{5-methyl-2-[(propan-2-yl)oxy]pyridin-3-yl}-N-(2-methylquinoline-5-sulfonyl)cyclopropane-1-carboxamide], the “Maximum % activity (with co-corrector)” value under setting [1] is listed as “+++ (≥350)”. The concentration giving a half-maximal response (EC50) is less than 3 µM under setting [2] and less than 3 µM under setting [4]. In addition, under setting [3], the Emax is more than 150%.
As for `Cc1cnc(OC(C)C)c(C2(C(=O)NS(=O)(=O)c3cccc4[nH]ccc34)CC2)c1` [Example GI-59, N-(1H-indole-4-sulfonyl)-1-{5-methyl-2-[(propan-2-yl)oxy]pyridin-3-yl}cyclopropane-1-carboxamide], the “Maximum % activity (with co-corrector)” value under setting [1] was “+++ (≥350)”. Further, the EC50 reads like this: under setting [2], less than 3 µM; under setting [4], 3 to 10 µM. The Emax under setting [3] was more than 150%.
Consider `Cc1ccc2c(S(=O)(=O)NC(=O)C3(c4cc(C5CC5)cnc4OC(C)C)CC3)cccc2n1` [Example GI-60, 1-{5-cyclopropyl-2-[(propan-2-yl)oxy]pyridin-3-yl}-N-(2-methylquinoline-5-sulfonyl)cyclopropane-1-carboxamide], for which the “Maximum % activity (with co-corrector)” value under setting [1] is given as “+++ (≥350)”. The EC50 reads like this: under setting [2], less than 3 µM; under setting [4], less than 3 µM. Also, the Emax under setting [3] was more than 150%.
For the molecule `CC(C)Oc1ncc(C2CC2)cc1C1(C(=O)NS(=O)(=O)c2cccc3[nH]ccc23)CC1` [Example GI-61, 1-{5-cyclopropyl-2-[(propan-2-yl)oxy]pyridin-3-yl}-N-(1H-indole-4-sulfonyl)cyclopropane-1-carboxamide], the “Maximum % activity (with co-corrector)” value under setting [1] is listed as “+++ (≥350)”. For the same molecule, the EC50 is less than 3 µM under setting [2] and less than 3 µM under setting [4]. In addition, under setting [3], the Emax was more than 150%.
On to `CC(C)Oc1ncc(N2CCCC2)cc1C1(C(=O)NS(=O)(=O)c2cccc3ncccc23)CC1` [Example GI-62, 1-{2-[(propan-2-yl)oxy]-5-(pyrrolidin-1-yl)pyridin-3-yl}-N-(quinoline-5-sulfonyl)cyclopropane-1-carboxamide], for which, under setting [1], the “Maximum % activity (with co-corrector)” value is “+++ (≥350)”. The EC50 under setting [2] was less than 3 µM and the 50% effective concentration (EC50) under setting [4] is less than 3 µM. In addition, the Emax under setting [3] was more than 150%.
Turning to `Cc1ccc2c(S(=O)(=O)NC(=O)C3(c4cc(N5CCCC5)cnc4OC(C)C)CC3)cccc2n1` [Example GI-63, N-(2-methylquinoline-5-sulfonyl)-1-{2-[(propan-2-yl)oxy]-5-(pyrrolidin-1-yl)pyridin-3-yl}cyclopropane-1-carboxamide], the “Maximum % activity (with co-corrector)” value under setting [1] is on record as “+++ (≥350)”. For the same molecule, the concentration giving a half-maximal response (EC50) by setting is: under setting [2], less than 3 µM; under setting [4], less than 3 µM. Moreover, the Emax under setting [3] was more than 150%.

In general, EC50 refers to the concentration giving half of the maximal effect.
